In ChEMBL document CHEMBL4414607, “Protein Stability Effects in Aggregate-Based Enzyme Inhibition” (J Med Chem, 2019) one finds ΔTm data, which are given here for one compound.

In assay [1] the test system is Bacteria. Briefly: Binding affinity to bacterial Beta-lactamase TEM-1 G238S mutant assessed as change in melting temperature at 100-fold molar excess compound concentration relative to apo-enzymes by SYPRO Orange dye based differential scanning fluorimetry.
Assay [2] relates to Bacteria. Briefly: Binding affinity to bacterial Beta-lactamase TEM-1 M182T mutant assessed as change in melting temperature at 100-fold molar excess compound concentration relative to apo-enzymes by SYPRO Orange dye based differential scanning fluorimetry. On the technique in general: DSF heats the sample and reads unfolding from a dye or from intrinsic fluorescence.
The target in assay [3] is Beta-lactamase TEM (Bacteria) (UniProt P62593). Description: Binding affinity to bacterial wild type Beta-lactamase TEM-1 assessed as change in melting temperature at 100-fold molar excess compound concentration relative to apo-enzymes by SYPRO Orange dye based differential scanning fluorimetry.
Assay [4] relates to Bacteria.
Assay [5] has as its system Bacteria. Description: Binding affinity to bacterial Beta-lactamase TEM-1 D179G mutant assessed as change in melting temperature at 100-fold molar excess compound concentration relative to apo-enzymes by SYPRO Orange dye based differential scanning fluorimetry.
Assay [6] relates to Bacteria. Description: Binding affinity to bacterial Beta-lactamase TEM-1 M182T/G238S mutant assessed as change in melting temperature at 100-fold molar excess compound concentration relative to apo-enzymes by SYPRO Orange dye based differential scanning fluorimetry.

Sequence of Beta-lactamase TEM (Bacteria) (P62593 whole entry): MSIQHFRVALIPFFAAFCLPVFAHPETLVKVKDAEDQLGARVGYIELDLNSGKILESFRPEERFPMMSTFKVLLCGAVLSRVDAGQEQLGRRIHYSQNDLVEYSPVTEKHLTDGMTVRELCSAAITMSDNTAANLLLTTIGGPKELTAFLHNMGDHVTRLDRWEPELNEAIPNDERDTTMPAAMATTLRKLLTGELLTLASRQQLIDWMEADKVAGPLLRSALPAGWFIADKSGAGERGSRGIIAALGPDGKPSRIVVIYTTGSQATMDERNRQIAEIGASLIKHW

As usually defined, the ΔTm is the shift of the melting midpoint relative to a reference. As for `CO[C@@]1(NC(=O)[C@H](C(=O)O)c2ccc(O)cc2)C(=O)N2C(C(=O)O)=C(CSc3nnnn3C)CO[C@@H]21`, the shift in melting temperature (ΔTm) in the assay with Bacteria [1] is -1.9 °C; in the assay with Bacteria [2], -4.1 °C; in assay [3], -4.5 °C; in the assay with Bacteria [4] it was -3.3 °C; in the assay on Bacteria [5] it was 2.9 °C; with Bacteria [6], -0.7 °C.
